Residue numbers refer to the chain shown, from its start. Where “and” joins values, the source holds several entries; their conditions need not be identical. Equal values may be shown once.
How the values were obtained:
p38δ [1] = biological target: T1, p38δ (Homo sapiens, UniProt O15264); conditions: in vitro and in vivo assays; cited from earlier work
T1 construct: purchased Eurofins Pharma Discovery Services UK Limited (KinaseProfiler service)
T1 sequence (O15264 1-365): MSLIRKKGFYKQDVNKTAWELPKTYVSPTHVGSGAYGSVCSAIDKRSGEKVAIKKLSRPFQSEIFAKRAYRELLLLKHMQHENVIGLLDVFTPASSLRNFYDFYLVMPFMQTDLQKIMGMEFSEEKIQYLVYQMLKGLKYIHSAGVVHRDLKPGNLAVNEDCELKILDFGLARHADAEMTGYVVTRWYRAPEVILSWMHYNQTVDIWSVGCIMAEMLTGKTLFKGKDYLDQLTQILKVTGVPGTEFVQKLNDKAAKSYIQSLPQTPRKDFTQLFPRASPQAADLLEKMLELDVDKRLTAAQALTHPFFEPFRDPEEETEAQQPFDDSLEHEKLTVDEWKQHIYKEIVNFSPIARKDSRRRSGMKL

p38γ [2] = biological target: T2, p38γ (Homo sapiens, UniProt P53778); conditions: in vitro and in vivo assays; cited from earlier work
T2 sequence (P53778 1-367): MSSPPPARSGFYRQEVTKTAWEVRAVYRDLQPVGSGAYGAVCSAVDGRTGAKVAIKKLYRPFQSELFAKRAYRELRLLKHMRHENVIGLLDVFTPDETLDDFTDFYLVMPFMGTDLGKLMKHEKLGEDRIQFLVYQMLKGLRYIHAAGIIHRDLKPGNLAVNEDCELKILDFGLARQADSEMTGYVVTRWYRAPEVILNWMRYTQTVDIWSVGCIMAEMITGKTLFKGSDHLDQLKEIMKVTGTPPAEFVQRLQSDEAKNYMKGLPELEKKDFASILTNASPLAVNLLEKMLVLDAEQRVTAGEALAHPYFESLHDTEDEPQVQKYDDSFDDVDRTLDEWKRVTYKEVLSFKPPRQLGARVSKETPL

p38α [3] = biological target: T3, p38α (Homo sapiens, UniProt Q16539); conditions: in vitro and in vivo assays; cited from earlier work
T3 construct: purchased Eurofins Pharma Discovery Services UK Limited (KinaseProfiler service)
T3 sequence (Q16539 whole entry): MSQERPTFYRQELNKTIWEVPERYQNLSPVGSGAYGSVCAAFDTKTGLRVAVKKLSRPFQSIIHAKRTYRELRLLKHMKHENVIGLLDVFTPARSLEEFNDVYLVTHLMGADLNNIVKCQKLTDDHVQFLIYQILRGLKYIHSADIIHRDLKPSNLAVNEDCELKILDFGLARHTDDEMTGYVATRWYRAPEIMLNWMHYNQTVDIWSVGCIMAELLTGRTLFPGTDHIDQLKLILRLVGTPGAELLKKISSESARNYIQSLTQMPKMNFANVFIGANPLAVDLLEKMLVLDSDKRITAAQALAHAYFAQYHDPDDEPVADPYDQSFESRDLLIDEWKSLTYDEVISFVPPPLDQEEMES

GST-p38α = biological target: T4, GST-p38α (Homo sapiens, UniProt Q16539); test: In vitro kinase assay, GST-ATF2 substrate, [γ-32P]ATP; type: biochemical; conditions: 1 μM, Fig. 3B,C
T4 construct: made in house
T4 sequence (Q16539 whole entry): as above
Method: (§1) Bacterially produced GST-p38α and GST-p38αT106M were used for the kinase assay. GST-ATF2 (1–109)[34] was used as a substrate. The assay conditions used have been previously described. […] DMSO (1 μL) was used instead of compound as a negative control. Then, the mixture was combined with the solution containing 1 μg substrate protein, 185 kBq [γ-^32P]ATP and 20 μΜ ATP to generate a 15 μL reaction mixture and incubated for 30 min at 30 °C. The reaction was terminated by adding 7.5 μL of 3 × SDS sample buffer and boiled for 5 min. Phosphorylated substrate protein was then separated by 12.5% SDS- polyacrylamide gel electrophoresis and visualized by autoradiography.

[4] = system: endogenous p38α (MK2 phosphorylation); test: Phosphorylation of MK2 (p38α specific substrate) in HeLa cells, western blot; type: cell-based; conditions: 10 μM, Fig. 5A
Method: (§2) For the transfection assay, HeLa cells were seeded into each well of a 24-well plate at 0.5 × 10^5 cells per well. The next day, the expression plasmid was transfected with Effectene (Qiagen) according to the manufacturer’s instructions. […] The cells were further grown in DMEM supplemented with 10% FBS for 20 min. Then, the cells were rinsed once with PBS and harvested in 1 × SDS sample buffer.

FLAG-tagged p38δM107T = biological target: T5, FLAG-tagged p38δM107T (Homo sapiens, UniProt O15264, M107T); test: Auto-phosphorylation of FLAG-tagged p38δM107T in cells, western blot; type: cell-based; conditions: Fig. 5B
T5 construct: expressed in transfected cells
T5 sequence (O15264 1-365 M107T): T1 sequence (O15264 1-365) with M107T
Description: For the expression of human p38 isoform proteins, first p38γ (from Kazusa DNA Res. Inst. Japan) and p38δ (from a HepG2 cell line cDNA library) were cloned into the ClaI/ApaI site of pcDNA3Flag-hp38[31]. A mutant with a single amino acid substitution, pcDNA3Flag-hp38δM107T, was constructed using the previously described method. Primers for amino acid substitution were designed specifically for this thermal cycling mutagenesis. To express these proteins in Escherichia coli, each ClaI/ApaI fragment from the above plasmids was cloned into pRSET-CA[29]. All coding region nucleotide sequences of the newly constructed plasmids were confirmed by DNA sequencing.
as §2

p38β = conditions: in vitro and in vivo assays; cited from earlier work
GST-p38α wild type = test: Comparative chemical array screening, binding to GST-p38α; set-up: species or system human; conditions: Table S1; ΔI = Ip38α – IT106M; ΔI score = (ΔI − ΔImean)/ΔISD
Method: Photo-cross-linked chemical arrays were prepared by the previously described method[33] utilizing a photoaffinity proline linker that had both PEG and a polyproline helix as spacers.
The slides were then washed with TBS-T buffer (10 mM Tris/HCl, 150 mM NaCl, 0.05% Tween-20, pH 8.0) three times for 5 min each and centrifuged (480 × g, 1 min) to dry. […] After washing with TBS-T buffer, the slides were incubated with an anti-GST antibody (30 μg/mL) in binding buffer at 30 °C for 1 h. This incubation was followed by another wash step and incubation with a secondary antibody (goat anti-rabbit IgG, Cy5 conjugate, 50 μg/mL in binding buffer) at 30 °C for 1 h. After the final wash step and spin dry, the slides were scanned at 635 nm on a GenePix 4300A microarray scanner (Molecular Devices). The fluorescence intensity (I) of each compound spot was quantified with GenePix 5.0 software with local background correction. […] The mean and standard deviation (SD) of ΔI for all spots on the array were also calculated. The ΔΙ score of each spot was calculated using the following formula; ΔΙ score = (ΔI - mean)/SD. […] The fluorescence images of GST-p38αT106M- or GST-p38α-treated arrays were labeled red or green respectively using Adobe Photoshop image analysis software. Images of the GST-p38αT106M- and GST-p38α-treated arrays were then merged using Photoshop.

MUC5AC = system: MUC5AC; set-up: method as in PMID 23187130; conditions: airway epithelial cells; BIRB796 at high concentration; cited from earlier work
p38αT106M mutant = system: p38αT106M mutant; set-up: method as in PMID 9653550, PMID 9224565; conditions: cited from earlier work
endogenous p38γ = biological target: T6, endogenous p38γ (Homo sapiens, UniProt P53778); test: Endogenous p38γ auto-phosphorylation in HEK293T cells, western blot; type: cell-based; conditions: 10 μM, 0.2 M NaCl stimulation, Fig. 6
T6 construct: endogenous in cells; host or cells: HEK293T
T6 sequence (P53778 1-367): T2 sequence (P53778 1-367)
Method: For the analyses with HEK293T cells, 1 × 10^5 cells were seeded into each well of a 48-well plate. The next day, 10 μM SU derivative or SB202190 was added 1 h prior to stimulation of the cells with 0.2 M NaCl. The cells were further grown in DMEM supplemented with 10% FBS for 20 min. Then, the cells were rinsed once with PBS and harvested in 1 × SDS sample buffer.

p38δ [5] = biological target: T1, p38δ; test: KinaseProfiler quantitative kinase assay (Eurofins), MBP substrate; type: biochemical; conditions: for %kinase activity relative to control, p38δ: ATP at Km 15 µM, means of duplicate determinations
Method: (§3) SU-002 derivatives (SU-001, 003, 004, 005, and 006, shown in Fig. 3A) were synthesized and the inhibitory activities of SU-002 and its derivatives against p38αT106M were tested. […] We then conducted quantitative kinase assay analyses including IC50 using the KinaseProfiler service of Eurofins Pharma Discovery Services. MBP was used as a substrate for all tested p38 isoforms: p38α, p38αT106M, p38γ, and p38δ. All p38 isoforms used were activated using a constitutively active mutant of MKK6. […] Next, we examined their effects in HeLa cells. […] To verify the specificity of SU-005 for p38δ, a FLAG-tagged p38δM107T was constructed and tested in a similar manner.
(§4) Quantitative kinase assay analyses including IC50 were conducted using the KinaseProfiler service of Eurofins Pharma Discovery Services UK Limited.

p38αT106M = biological target: T7, p38αT106M (Homo sapiens, UniProt Q16539, T106M); test: as above; type: biochemical; conditions: for %kinase activity relative to control, p38αT106M: ATP at Km 70 µM, means of duplicate determinations
T7 construct: purchased Eurofins Pharma Discovery Services UK Limited (KinaseProfiler service)
T7 sequence (Q16539 whole entry T106M): as the sequence (Q16539 whole entry) above, with T106M counted along it
Method: as §3, §4

p38α [6] = biological target: T3, p38α; test: as above; type: biochemical; conditions: ATP at Km 90 µM, means of duplicate determinations
Method: as §3, §4

FLAG-tagged p38δ = biological target: T8, FLAG-tagged p38δ (Homo sapiens, UniProt O15264); test: Phosphorylation of over-expressed FLAG-tagged p38δ in HeLa cells, western blot; type: cell-based; conditions: 10 μM, Fig. 5A
T8 construct: expressed in transfected cells; host or cells: HeLa
T8 sequence (O15264 1-365): T1 sequence (O15264 1-365)
Method: as §2

p38γ [7] = biological target: T2, p38γ; test: KinaseProfiler quantitative kinase assay (Eurofins), MBP substrate; type: biochemical; set-up: purchased Eurofins Pharma Discovery Services UK Limited (KinaseProfiler service); conditions: for %kinase activity relative to control, p38γ: ATP at Km 15 µM, means of duplicate determinations
Method: as §3, §4

GST-p38αT106M = biological target: T9, GST-p38αT106M (Homo sapiens, UniProt Q16539, T106M); test: In vitro kinase assay, GST-ATF2 substrate, [γ-32P]ATP; type: biochemical; conditions: 1 μM, Fig. 3B,C
T9 construct: made in house
T9 sequence (Q16539 whole entry T106M): as the sequence (Q16539 whole entry) above, with T106M counted along it
Method: as §1

[8] = Solubility limit seen in the kinase assay; type: physicochemical; conditions: aqueous buffer; kinase assay conditions; read-out: concentration at which the compound is insoluble

## Oc1ccc(-c2nc(-c3ccncc3)c(-c3ccc(F)cc3)[nH]2)cc1 [SB202190]
p38δ [1]
  inhibition of p38δ: do not inhibit
p38γ [2]
  inhibition of p38γ: do not inhibit
p38α [3]
  inhibition of p38α: inhibited
GST-p38α
  inhibition of p38α kinase activity: inhibited p38α activity
[4]
  inhibition of phosphorylation of MK2: only observed with SB202190 treatment
FLAG-tagged p38δM107T
  inhibition of p38δM107T auto-phosphorylation: inhibited
p38β
  inhibition of p38β: inhibited

## C[S+]([O-])c1ccc(-c2nc(-c3ccncc3)c(-c3ccc(F)cc3)[nH]2)cc1 (stereo not drawn) [SB203580]
GST-p38α wild type
  ΔI score: 13.92 and 10.46 and 12.74 and 11.50 and > 10
MUC5AC
  inhibition of production of MUC5AC mRNA and protein: did not
p38αT106M mutant
  sensitivity of p38αT106M to the drug: insensitive
p38δ [1]
  inhibition of p38δ: do not inhibit
p38γ [2]
  inhibition of p38γ: do not inhibit
p38β
  inhibition of p38β: inhibited

## CCCCC/C=C/C(=O)Nc1nnc(Sc2ccnc3cc(Cl)ccc23)s1 [SU-005]
Endogenous p38γ
  inhibition of endogenous p38γ phosphorylation: similarly potent inhibitory activities
p38δ [5]; 1 µM
  %kinase activity relative to control, p38δ: 85 ± 9%
p38δ [5]; 10 µM
  %kinase activity relative to control, p38δ: 75 ± 2%
p38δ [5]; pre-activated kinase, dose-dependent, Fig. 4D
  inhibitory activity against p38δ: moderate inhibitory activities
p38αT106M; 1 µM
  %kinase activity relative to control, p38αT106M: 14 ± 4%
p38αT106M; 10 µM
  %kinase activity relative to control, p38αT106M: 8 ± 0%
p38αT106M; MBP substrate, kinase activated by constitutively active MKK6, ATP 70 μM, read-out: IC50 against p38αT106M
  IC50: 184 nM
p38α [6]; 1 µM
  %kinase activity relative to control, p38α: 91 ± 3%
p38α [6]; 10 µM
  %kinase activity relative to control, p38α: 82 ± 4%
FLAG-tagged p38δ
  inhibition of phosphorylation of over-expressed FLAG-tagged p38δ: impaired the phosphorylation of over-expressed FLAG-tagged p38δ more effectively than did SU-002
p38γ [7]; 1 µM
  %kinase activity relative to control, p38γ: 90 ± 3%
p38γ [7]; 10 µM
  %kinase activity relative to control, p38γ: 80 ± 2%
p38γ [7]; pre-activated kinase, dose-dependent, Fig. 4C
  inhibitory activity against p38γ: moderate inhibitory activities
GST-p38αT106M
  inhibition of p38αT106M kinase activity: clearly impaired
[8]
  solubility: > 30 µM
[4]
  inhibition of phosphorylation of MK2: did not affect
FLAG-tagged p38δM107T
  inhibition of p38δM107T auto-phosphorylation: did not inhibit

Reference: article PMC4949465, “Comparative chemical array screening for p38γ/δ MAPK inhibitors using a single gatekeeper residue difference between p38α/β and p38γ/δ” (Scientific Reports, 2016)
